Drawing on ChEMBL document CHEMBL1146586, “Chromone studies. Part 13. Synthesis and electron-impact mass spectrometric studies of 5-hydroxy-2-isopropyl-7-methoxychromone, a constituent of the medicinal plant Baeckea frutescens, and side-chain analogues” (J Nat Prod, 2003), this text covers LC50 for ten compounds.

≈ marks a conversion by molar mass, not a printed value.

The nature of the data set: Toxicity against Artemia salina by Spearman-Karber method. It counts as organism-based. The following applies: in vivo.
Take `CCc1cc(=O)c2c(OC)cc(OC)cc2o1`: the LC50 amounted to 200 µg/mL (≈ 854 µM).
The figure for `COc1cc(OC)c2c(=O)cc(Cc3ccccc3)oc2c1` is 247 µg/mL (≈ 835 µM); for `COc1cc(O)c2c(=O)cc(C)oc2c1` [EUGENIN] it is 112 µg/mL (≈ 544 µM).
Next, `COc1cc(OC)c2c(=O)cc(C)oc2c1`: 315 µg/mL (≈ 1430 µM).
As to `CCCc1cc(=O)c2c(OC)cc(OC)cc2o1`, the LC50 came out at 106 µg/mL (≈ 427 µM).
Compound `CCc1cc(=O)c2c(O)cc(OC)cc2o1` came in with an LC50 of 39 µg/mL (≈ 177 µM).
Next, `COc1cc(O)c2c(=O)cc(C(C)C)oc2c1`: 23.8 µg/mL (≈ 102 µM).
In turn, `CCCc1cc(=O)c2c(O)cc(OC)cc2o1` yielded a 50% lethal concentration (LC50) of 31.5 µg/mL (≈ 134 µM).
The figure for `COc1cc(OC)c2c(=O)cc(C(C)C)oc2c1` is 94.2 µg/mL (≈ 379 µM).
The figure for `COc1cc(O)c2c(=O)cc(Cc3ccccc3)oc2c1` is 517 µg/mL (≈ 1830 µM).

The term LC50 denotes the concentration that kills 50% of the test population.
